Structures can show the parent of a compound that is named as a salt. Blank lines part the entries; values can stand above or below the compound they belong to.
Structure (SMILES): CCCn1c(=O)c2ccc(-c3ccc(N)nc3)cc2n2nc(CCOC)cc12.Cl
melting point: 96 to 102 °C

Structure (SMILES): CCn1c(=O)c2ccc(-c3cc(C)nc(C)c3)cc2n2nc(CCOC)cc12.Cl
melting point: 173 to 180 °C

Structure (SMILES): CCCn1c(=O)c2ccc(-c3cc(C)nc(C)c3)cc2n2nc(CCOC)cc12.Cl
melting point: 120 to 125 °C

Structure (SMILES): Cn1c(=O)c2ccc(-c3cn[nH]c3)cc2n2nc(C3CCOCC3)cc12 [Example 87, 4-Methyl-8-(1H-pyrazol-4-yl)-2-(tetrahydro-pyran-4-yl)-4H-pyrazolo[1,5-a]quinazolin-5-one]
melting point: > 250 °C

Structure (SMILES): CCCn1c(=O)c2ccc(-c3cc(C)nc(C)c3)cc2n2nc(C3CCCC3)cc12.Cl
melting point: > 250 °C

Structure (SMILES): CCn1c(=O)c2ccc(-c3ccc(N)nc3)cc2n2nc(CCOC)cc12.Cl
melting point: 163 to 170 °C

Structure (SMILES): Cc1cc(-c2ccc3c(=O)n(CC(F)(F)F)c4cc(C5CCCC5)nn4c3c2)cc(C)n1.Cl
melting point: > 250 °C

Now from value to compound:

melting point: > 250 °C
Structure (SMILES): Cc1cc(-c2cc3n(C)c(=O)c4ccc(-c5cccnc5C)cc4n3n2)cc(C)n1 (as salt: salt) [Example 113, 2-(2,6-Dimethyl-pyridin-4-yl)-4-methyl-8-(2-methyl-pyridin-3-yl)-4H-pyrazolo[1,5-a]quinazolin-5-one]

melting point: > 250 °C
Structure (SMILES): Cc1ccc(-c2ccc3c(=O)n(C)c4cc(-c5cc(C)nc(C)c5)nn4c3c2)cn1 (as salt: salt) [Example 117, 2-(2,6-Dimethyl-pyridin-4-yl)-4-methyl-8-(6-methyl-pyridin-3-yl)-4H-pyrazolo[1,5-a]quinazolin-5-one]

melting point: > 250 °C
Structure (SMILES): COc1ccc(-c2ccc3c(=O)n(C)c4cc(-c5ccccc5)nn4c3c2)cc1 [Example 7, 8-(4-Methoxy-phenyl)-4-methyl-2-phenyl-4H-pyrazolo[1,5-a]quinazolin-5-one]

melting point: 211 to 213 °C
Structure (SMILES): COc1ccc(-c2ccc3c(=O)n(C)c4cc(-c5cnn(C)c5)nn4c3c2)cc1 [Example 125, 8-(4-Methoxy-phenyl)-4-methyl-2-(1-methyl-1H-pyrazol-4-yl)-4H-pyrazolo[1,5-a]quinazolin-5-one]

melting point: > 250 °C
Structure (SMILES): Cc1cc(-c2cc3n(C)c(=O)c4ccc(-c5ccc(N)nc5)cc4n3n2)cc(C)n1 (as salt: salt) [Example 112, 8-(6-Amino-pyridin-3-yl)-2-(2,6-dimethyl-pyridin-4-yl)-4-methyl-4H-pyrazolo[1,5-a]quinazolin-5-one]

melting point: 132 to 134 °C
Structure (SMILES): COCc1cccc(-c2ccc3c(=O)n(C)c4cc(-c5ccccc5)nn4c3c2)c1 [Example 9, 8-(3-Methoxymethyl-phenyl)-4-methyl-2-phenyl-4H-pyrazolo[1,5-a]quinazolin-5-one]

melting point: 241 to 245 °C
Structure (SMILES): COCCc1cc2n(C)c(=O)c3ccc(-c4cc(C)nc(C)c4)cc3n2n1.Cl

melting point: > 250 °C
Structure (SMILES): Cc1cc(-c2cc3n(C)c(=O)c4ccc(-c5cccnc5)cc4n3n2)cc(C)n1 (as salt: salt) [Example 116, 2-(2,6-Dimethyl-pyridin-4-yl)-4-methyl-8-pyridin-3-yl-4H-pyrazolo[1,5-a]quinazolin-5-one]

melting point: > 250 °C
Structure (SMILES): Cn1c(=O)c2ccc(-c3cccc(-c4nn[nH]n4)c3)cc2n2nc(-c3ccccc3)cc12 (as salt: sodium) [Example 36, 4-Methyl-2-phenyl-8-[3-(2H-tetrazol-5-yl)-phenyl]-4H-pyrazolo[1,5-a]quinazolin-5-one]

melting point: > 250 °C
Structure (SMILES): Cc1cc(-c2cc3n(C)c(=O)c4ccc(-c5cnccc5C)cc4n3n2)cc(C)n1 (as salt: salt) [Example 119, 2-(2,6-Dimethyl-pyridin-4-yl)-4-methyl-8-(4-methyl-pyridin-3-yl)-4H-pyrazolo[1,5-a]quinazolin-5-one]

melting point: > 250 °C
Structure (SMILES): Cn1c(=O)c2ccc(-c3nn[nH]n3)cc2n2nc(-c3ccccc3)cc12 [Example 22, 4-Methyl-2-phenyl-8-(2H-tetrazol-5-yl)-4H-pyrazolo[1,5-a]quinazolin-5-one]
